# Read-outs that look alike come from different tables or passages of the source.
# What was measured:
# [1] = test system: isolated rat liver mitochondria; assay: Mitochondrial oxygen consumption (glutamate/malate or succinate driven, state 4 and state 3); format: biochemical; conditions: DMSO treated samples set as 1; for State 3 respiration driven by succinate at 10XCmax: key: 0 indicates that the drug had no effects (negative); for State 3 respiration driven by succinate at 1XCmax: key: 0 indicates that the drug had no effects (negative)
# Outline: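 Rat liver mitochondria (1 mg/ml protein) exposed 5 min to kinase inhibitors in 0.1% DMSO, then O2 consumption measured by Clark-type electrode with glutamate/malate or succinate (state 4), ADP added after 3 min (state 3). Rates normalized to 0.1% DMSO controls set to 1.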
# RCC I = RCC I activity in submitochondrial particles; format: biochemical, rat; design: key to RCC I at 10XCmax / RCC I at 100XCmax / RCC I at 50XCmax / RCC I at 30XCmax / RCC I at 20XCmax: activity relative to DMSO-treated controls (control set as 1 = 100%); conditions: for RCC activity I: 15 min
# Outline: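 Abs 340 nm (I/V) or 600 nm (II), 1-min reads × 6 min; 550 nm (III, IV), 10-s reads × 2 min. RCC I = rotenone-free minus rotenone rate. DMSO control = 1.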
# RCC II = molecular target: T1, RCC II (Rattus norvegicus, UniProt P21913+Q641Z9+Q6PCT8+Q920L2); assay: RCC II activity in submitochondrial particles; format: biochemical; design: key: activity relative to DMSO-treated controls (control set as 1 = 100%); conditions: DMSO treated samples set as 1
# T1 construct: Submitochondrial particles were prepared by subjecting the intact mitochondria to three successive freeze–thaw cycles; from tissue; host or cells: rat liver mitochondria, used as submitochondrial particles
# T1 sequence (Q920L2 35-656): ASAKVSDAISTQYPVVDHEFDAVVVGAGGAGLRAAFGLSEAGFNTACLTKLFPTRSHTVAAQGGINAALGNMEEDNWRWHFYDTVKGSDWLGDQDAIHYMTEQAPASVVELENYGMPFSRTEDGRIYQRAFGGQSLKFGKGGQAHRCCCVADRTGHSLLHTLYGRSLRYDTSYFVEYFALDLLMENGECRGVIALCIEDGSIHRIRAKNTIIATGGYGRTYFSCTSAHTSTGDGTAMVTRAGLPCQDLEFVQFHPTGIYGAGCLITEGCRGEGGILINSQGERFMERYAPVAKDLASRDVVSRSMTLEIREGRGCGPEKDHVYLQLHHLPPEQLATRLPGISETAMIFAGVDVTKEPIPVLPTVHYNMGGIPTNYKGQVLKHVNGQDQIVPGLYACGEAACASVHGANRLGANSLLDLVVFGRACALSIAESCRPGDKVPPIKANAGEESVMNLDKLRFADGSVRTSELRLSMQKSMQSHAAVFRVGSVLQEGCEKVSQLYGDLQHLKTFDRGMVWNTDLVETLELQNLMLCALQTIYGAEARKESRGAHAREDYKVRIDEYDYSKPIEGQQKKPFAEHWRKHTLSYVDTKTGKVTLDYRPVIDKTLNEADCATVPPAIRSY
# T1 sequence (P21913 31-282): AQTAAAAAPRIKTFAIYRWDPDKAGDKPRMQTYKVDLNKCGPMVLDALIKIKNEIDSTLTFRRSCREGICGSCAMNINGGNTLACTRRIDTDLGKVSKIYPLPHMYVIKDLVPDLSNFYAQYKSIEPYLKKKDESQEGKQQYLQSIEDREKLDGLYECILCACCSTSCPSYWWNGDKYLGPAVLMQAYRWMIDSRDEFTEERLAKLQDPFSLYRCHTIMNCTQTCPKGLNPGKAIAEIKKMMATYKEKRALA
# T1 sequence (Q641Z9 1-169): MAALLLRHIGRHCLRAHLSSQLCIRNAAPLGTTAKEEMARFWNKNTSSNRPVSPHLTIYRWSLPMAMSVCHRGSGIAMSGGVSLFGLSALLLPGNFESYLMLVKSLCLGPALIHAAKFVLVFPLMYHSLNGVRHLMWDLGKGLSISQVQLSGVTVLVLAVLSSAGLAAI
# T1 sequence (Q6PCT8 57-159): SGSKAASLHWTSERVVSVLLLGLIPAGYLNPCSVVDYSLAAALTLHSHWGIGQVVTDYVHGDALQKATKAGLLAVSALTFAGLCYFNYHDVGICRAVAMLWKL
# Outline: (§1)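 Kinase inhibitors were preincubated 15 min with submitochondrial particles (1 mg/ml) before complex activities were measured. RCC I was the rotenone-sensitive portion (activity without minus with rotenone). RCC I/V was read at 340 nm and RCC II at 600 nm every 1 min for 6 min. RCC III and IV were read at 550 nm every 10 s for 2 min. Activities are normalized to DMSO controls set as 1.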
# RCC III = RCC III activity in submitochondrial particles; format: biochemical, rat; conditions: 15 min, DMSO-treated = 100
# Outline: as §1
# RCC IV = RCC IV activity in submitochondrial particles; format: biochemical, rat; conditions: 15 min, DMSO-treated = 100
# Outline: as §1
# RCC V = RCC V activity in submitochondrial particles; format: biochemical, rat; conditions: for RCC activity V: 15 min, DMSO-treated = 100; for RCC V at 5XCmax: key: 0 indicates that the drug had no effects (negative)
# Outline: as §1
# [2] = test system: isolated rat liver mitochondria; assay: Mitochondrial inner membrane potential (MMP), Rhodamine 123; format: biochemical; conditions: difference in signal between KI and DMSO treated samples at the end of experiments
# Description: Fig. 3 KI effects on mitochondrial inner membrane potential (MMP). […] In a, c, data are means and standard derivations from three separate experiments. *p < 0.05 as compared to DMSO-treated samples at the end of experiments. In b, data are means of two independent experiments
# [3] = test system: isolated rat liver mitochondria; assay: Mitochondrial swelling (absorbance at 535 nm); format: biochemical; conditions: difference in signal between KI and DMSO treated samples at the end of experiments; for Swelling 5XCmax: key: 0 indicates that the drug had no effects (negative)
# [4] = Solubility of DMSO stock for 100X/50X Cmax testing; format: physicochemical; conditions: solubility in DMSO
# Description: Supplement 204_2016_1918_MOESM3_ESM.xlsx, sheet "Sheet1" | column: 100 Cmax; 50 Cmax; note
# [5] = test system: isolated rat liver mitochondria; conditions: positive control alamethicin treated samples
# [6] = cited from earlier work
# [7] = test system: isolated rat liver mitochondria; assay: Mitochondrial ROS production (CM-H2DCFDA); conditions: DMSO treated samples set as 1
# RCC I–V = assay: Activities of RCC I–V, overall statements; format: biochemical, rat; conditions: submitochondrial particles
# Description: KIs were incubated with submitochondrial particles (1 mg/ml) for 15 min and then RCC I–V activities measured. […] The activities of DMSO-treated samples (controls) were set as 1. […] The difference between the activity from rotenone-containing buffer and rotenone-absent buffer was considered as RCC I activity. […] For measuring RCC I/V and II activity, the changes in absorbance at 340 and 600 nm, respectively, were determined every 1 min for 6 min. For measuring RCC III and RCC IV, the changes in absorbance at 550 nm were measured every 10 s for 2 min.
# [8] = cited from earlier work; remark: listed apart in the source
# [9] = human therapeutic Cmax at FDA recommended dosages, ref product labeling and drug approval packages at the official FDA website
compound,measurement,setting,value
CCc1cc2c(cc1N1CCC(N3CCOCC3)CC1)C(C)(C)c1[nH]c3cc(C#N)ccc3c1C2=O [Alectinib],State 3 respiration driven by succinate at 1XCmax,[1]; 1XCmax,0
same,State 4 respiration driven by succinate at 1XCmax,[1]; 1XCmax,0
same,State 3 respiration driven by succinate at 2.5XCmax,[1]; 2.5XCmax,0
same,State 4 respiration driven by succinate at 2.5XCmax,[1]; 2.5XCmax,0
same,State 3 respiration driven by succinate at 5XCmax,[1]; 5XCmax,0
same,State 4 respiration driven by succinate at 5XCmax,[1]; 5XCmax,0
same,State 3 respiration driven by succinate at 10XCmax,[1]; 10XCmax,0
same,State 4 respiration driven by succinate at 10XCmax,[1]; 10XCmax,0
same,State 3 respiration driven by succinate at 20XCmax,[1]; 20XCmax,0
same,State 4 respiration driven by succinate at 20XCmax,[1]; 20XCmax,0
same,RCC I at 10XCmax,"RCC I; 10XCmax, DMSO treated samples set as 1",0
same,RCC activity I,"RCC I; 20-fold Cmax, DMSO-treated = 100",89.39 ± 2.98 % of control
same,RCC I at 20XCmax,"RCC I; 20XCmax, DMSO-treated = 100",89.39±2.98
same,RCC II at 1.0XCmax,RCC II; 1.0XCmax,0
same,RCC II at 2.5XCmax,RCC II; 2.5XCmax,0
same,RCC II at 5XCmax,RCC II; 5XCmax,0
same,RCC II at 10XCmax,RCC II; 10XCmax,0
same,RCC II at 20XCmax,RCC II; 20XCmax,0
same,RCC activity III,RCC III; 20-fold Cmax,116.05 ± 4.72 % of control
same,RCC activity IV,RCC IV; 20-fold Cmax,101.46 ± 1.66 % of control
same,RCC V at 5XCmax,"RCC V; 5XCmax, DMSO treated samples set as 1",0
same,RCC activity V,RCC V; 20-fold Cmax,106.30 ± 11.74 % of control
same,MMP measured by Rhodamine 123 at 1XCmax,[2]; 1XCmax,0
same,MMP measured by Rhodamine 123 at 2.5XCmax,[2]; 2.5XCmax,0
same,MMP measured by Rhodamine 123 at 5XCmax,[2]; 5XCmax,0
same,MMP measured by Rhodamine 123 at 10XCmax,[2]; 10XCmax,0
same,MMP measured by Rhodamine 123 at 20XCmax,[2]; 20XCmax,0
same,Swelling 1XCmax,[3]; 1XCmax,0
same,Swelling 2.5XCmax,[3]; 2.5XCmax,0
same,Swelling 5XCmax,[3]; 5XCmax,0
same,Swelling 10XCmax,[3]; 10XCmax,0
same,Swelling 20XCmax,[3]; 20XCmax,0
same,DMSO stock for 50 Cmax,[4]; stock for 50 Cmax,not soluble
same,DMSO stock for 100 Cmax,[4]; stock for 100 Cmax,not soluble
same,Cytochrome c release 1XCmax,[5]; 1XCmax,0
same,Cytochrome c release 2.5XCmax,[5]; 2.5XCmax,0
same,Cytochrome c release 5XCmax,[5]; 5XCmax,0
same,Cytochrome c release 10XCmax,[5]; 10XCmax,0
same,Cytochrome c release 20XCmax,[5]; 20XCmax,0
same,Cmax,[6]; [9],1.37 µM
same,Cmax (ng or µg/ml),"[6]; human therapeutic maximal blood concentration, ref product labeling",0.665 µg/mL
same,Cmax,"[6]; read-out: Cmax at µM, human therapeutic maximal blood concentration, ref product labeling",1.37 µM
same,ROS measured by CM-H2DCFDA at 1XCmax,[7]; 1XCmax,0
same,ROS measured by CM-H2DCFDA at 2.5XCmax,[7]; 2.5XCmax,0
same,ROS measured by CM-H2DCFDA at 5XCmax,[7]; 5XCmax,0
same,ROS measured by CM-H2DCFDA at 10XCmax,[7]; 10XCmax,0
same,ROS measured by CM-H2DCFDA at 20XCmax,[7]; 20XCmax,0
C#Cc1cccc(Nc2ncnc3cc(OCCOC)c(OCCOC)cc23)c1 [Erlotinib],RCC activity I,"RCC I; 10-fold Cmax, DMSO-treated = 100",90.62 ± 2.87 % of control
same,RCC activity III,RCC III; 10-fold Cmax,103.11 ± 12.25 % of control
same,RCC activity IV,RCC IV; 10-fold Cmax,98.77 ± 4.53 % of control
same,RCC activity V,RCC V; 10-fold Cmax,83.52 ± 2.96 % of control
same,lowest concentration inhibiting RCCs,RCC I–V,10 fold Cmax
same,Cmax,[6]; [9],3.44 µM
same,labeling for DILI,[8]; in vivo,W&P: fatal DILI
same,DILI potential (based on labeling),[8]; ref FDA product labeling,1
